The record followed here is patent US20250263400A1, “GCN2 MODULATOR COMPOUNDS” (Alesta Therapeutics BV, priority 2022, published 2025).

Chain of GCN2 (Q9P2K8 whole entry, species assumed): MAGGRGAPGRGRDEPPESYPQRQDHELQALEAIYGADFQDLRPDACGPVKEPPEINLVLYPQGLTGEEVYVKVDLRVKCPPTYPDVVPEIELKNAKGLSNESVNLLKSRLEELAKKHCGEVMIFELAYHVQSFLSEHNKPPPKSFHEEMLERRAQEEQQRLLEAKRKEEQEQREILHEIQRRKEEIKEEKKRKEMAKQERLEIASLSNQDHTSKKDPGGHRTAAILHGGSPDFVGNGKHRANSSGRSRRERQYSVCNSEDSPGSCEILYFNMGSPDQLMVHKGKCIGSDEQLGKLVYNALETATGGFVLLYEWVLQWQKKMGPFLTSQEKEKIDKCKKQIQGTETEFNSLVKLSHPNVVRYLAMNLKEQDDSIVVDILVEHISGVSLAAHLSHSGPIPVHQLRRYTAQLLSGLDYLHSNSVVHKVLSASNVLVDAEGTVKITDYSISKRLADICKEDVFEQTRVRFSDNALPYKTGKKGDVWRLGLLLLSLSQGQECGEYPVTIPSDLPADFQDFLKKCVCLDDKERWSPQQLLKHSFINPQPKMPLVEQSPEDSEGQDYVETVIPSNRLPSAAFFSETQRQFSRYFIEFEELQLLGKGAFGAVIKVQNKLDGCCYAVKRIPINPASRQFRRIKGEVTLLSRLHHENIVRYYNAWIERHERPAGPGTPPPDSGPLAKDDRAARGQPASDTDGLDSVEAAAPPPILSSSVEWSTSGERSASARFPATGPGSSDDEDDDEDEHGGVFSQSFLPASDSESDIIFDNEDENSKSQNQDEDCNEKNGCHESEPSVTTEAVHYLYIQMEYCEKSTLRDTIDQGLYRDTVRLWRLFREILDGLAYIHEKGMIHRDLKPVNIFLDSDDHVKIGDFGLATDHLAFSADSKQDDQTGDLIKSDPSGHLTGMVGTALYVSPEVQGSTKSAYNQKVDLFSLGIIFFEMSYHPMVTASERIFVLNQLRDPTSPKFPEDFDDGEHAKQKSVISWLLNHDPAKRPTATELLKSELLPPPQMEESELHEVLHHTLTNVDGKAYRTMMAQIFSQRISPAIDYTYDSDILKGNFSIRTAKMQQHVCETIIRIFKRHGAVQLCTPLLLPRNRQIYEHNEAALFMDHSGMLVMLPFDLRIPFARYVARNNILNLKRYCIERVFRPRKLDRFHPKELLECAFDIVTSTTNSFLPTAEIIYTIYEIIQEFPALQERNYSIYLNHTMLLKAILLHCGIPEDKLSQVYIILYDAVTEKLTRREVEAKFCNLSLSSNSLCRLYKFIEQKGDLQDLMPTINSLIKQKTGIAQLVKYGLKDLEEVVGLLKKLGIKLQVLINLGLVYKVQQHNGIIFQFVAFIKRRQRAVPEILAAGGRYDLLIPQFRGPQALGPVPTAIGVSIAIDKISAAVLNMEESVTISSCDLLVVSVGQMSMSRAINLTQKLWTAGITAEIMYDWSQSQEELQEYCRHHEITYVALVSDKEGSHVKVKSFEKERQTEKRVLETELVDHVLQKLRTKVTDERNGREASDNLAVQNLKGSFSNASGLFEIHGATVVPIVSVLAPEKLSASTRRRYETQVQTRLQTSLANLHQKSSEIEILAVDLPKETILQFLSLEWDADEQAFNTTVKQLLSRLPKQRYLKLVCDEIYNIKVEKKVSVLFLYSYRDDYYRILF

The assay concerns the target GCN2 (Homo sapiens (Human), UniProt Q9P2K8). The assay can be described thus: GCN2 enzyme assay. The format is biochemical. On the procedure:
For GCN2 enzyme assays, testing compounds were prepared at proper concentrations in DMSO solution. IC50 values were calculated from a remaining activity using read conversion ratio.
Turning to `COCCNC(=O)N1CC[C@@H](Nc2ncc3cc(-c4c(F)ccc(NS(=O)(=O)c5cc(Cl)cc(CO)c5Cl)c4F)ccc3n2)C1` [Compound 1, (R)-3-((6-(3-((2,5-dichloro-3-(hydroxymethyl)phe-nyl)sulfonamido)-2,6-difluorophenyl)quina-zolin-2-yl)amino)-N-(2-methoxyethyl)pyr-rolidine-1-carboxamide], it took 10.4 nM to reach half-maximal inhibition (IC50).

For the compound `COCCNC[C@@H]1CC[C@@H](Nc2ncc3cc(-c4c(F)ccc(NS(=O)(=O)c5cc(Cl)cc(CO)c5Cl)c4F)ccc3n2)C1` [Compound 2, 2,5-dichloro-N-(2,4-difluoro-3-(2-(((1R,3R)-3-(((2-methoxyethyl)ami-no)methyl)cyclopent-yl)amino)quina-zolin-6-yl)phenyl)-3-(hydroxymethyl)ben-zenesulfonamide], the IC50 (commonly the concentration needed to halve the response being measured) was 2.63 nM. This IC50 is about 4-fold lower than that of the compound before.

For the compound `COCCNC(=O)[C@H]1C[C@H](Nc2ncc3cc(-c4c(F)ccc(NS(=O)(=O)c5cc(Cl)cc(CO)c5Cl)c4F)ccc3n2)CN1` [Compound 3, (2R,4S)-4-((6-(3-((2,5-dichloro-3-(hydroxymethyl)phe-nyl)sulfonamido)-2,6-difluorophenyl)quin-zolin-2-yl)amino)-N-(2-methoxyethyl)pyr-rolidine-2-carboxamide], the half-maximal inhibitory concentration (IC50) was 5.43 nM.

`CN(C)CCNC(=O)[C@H]1CC[C@H](Nc2ncc3cc(-c4c(F)ccc(NS(=O)(=O)c5cc(Cl)cc(CO)c5Cl)c4F)ccc3n2)CC1` [Compound 4, (1R,4R)-4-((6-(3-((2,5-dichloro-3-(hydroxymethyl)phe-nyl)sulfonamido)-2,6-difluorophenyl)quina-zolin-2-yl)amino)-N-(2-(dimethylamino)eth-yl)cyclohexane-1-carboxamide] registered an IC50 of 3.94 nM.

`COCCNC(=O)N1CC[C@@H](Nc2ncc3cc(-c4c(F)ccc(NS(=O)(=O)c5cc(Cl)cnc5OC)c4F)ccc3n2)C1` [Compound 5, (R)-3-((6-(3-((5-chloro-2-methoxypyridine)-3-sulfonamido)-2,6-difluorophenyl)quina-zolin-2-yl)amino)-N-(2-methoxyethyl)pyr-rolidine-1-carboxamide] had a concentration for half-maximal inhibition (IC50) of 11.4 nM.

`Cc1ncc(Cl)cc1S(=O)(=O)Nc1ccc(F)c(-c2ccc3nc(N[C@H]4CC[C@H](N(C)C)CC4)ncc3c2)c1F` [Compound 6, 5-chloro-N-(3-(2-(((1R,4R)-4-(dimethylamino)cy-clohexyl)amino)quinazolin-6-yl)-2,4-difluorophenyl)-2-methylpyridine-3-sulfonamide] showed an IC50 of 3.36 nM.

With `COCCNC[C@@H]1CCC(Nc2ncc3cc(-c4c(Cl)ccc(NS(=O)(=O)c5cc(Cl)cnc5OC)c4Cl)ccc3n2)C1` (stereo partly drawn) [Compound 7, 5-chloro-N-(2,4-dichloro-3-(2-(((1R,3R)-3-(((2-methoxyethyl)ami-no)methyl)cyclopent-yl)amino)quina-zolin-6-yl)phenyl)-2-methoxypyridine-3-sulfonamide], the IC50 was determined as 12.6 nM. Against the preceding compound, the IC50 is about 3.8-fold higher.

`NC(=O)[C@@H]1CC[C@@H](Nc2ncc3cc(-c4c(F)ccc(NS(=O)(=O)c5cc(Cl)cc(CO)c5Cl)c4F)ccc3n2)C1` [Compound 11, (1R,3R)-3-((6-(3-((2,5-dichloro-3-(hydroxymethyl)phe-nyl)sulfonamido)-2,6-difluorophenyl)quina-zolin-2-yl)amino)cyclopent-ane-1-carboxamide] registered an IC50 of 2.12 nM. This IC50 is about 5.9-fold lower than that of the compound before.

In the case of `O=S1(=O)CCC(Nc2ncc3cc(-c4c(F)ccc(NS(=O)(=O)c5cc(Cl)cc(CO)c5Cl)c4F)ccc3n2)C1` (centres unmarked) [Compound 12, 2,5-dichloro-N-(3-(2-((1,1-dioxidotetrahydro-thiophen-3-yl)amino)quinazo-lin-6-yl)-2,4-difluorophenyl)-3-(hydroxymethyl)ben-zenesulfonamide], the IC50 worked out at 7.62 nM.

On to `COCCNC[C@@H]1CC[C@@H](Nc2ncc3cc(-c4c(F)ccc(NS(=O)(=O)c5cc(Cl)cnc5OC)c4F)ccc3n2)C1` [Compound 13, 5-chloro-N-(2,4-difluoro-3-(2-(((1R,3R)-3-(((2-methoxyethyl)ami-no)methyl)cyclopent-yl)amino)quina-zolin-6-yl)phenyl)-2-methoxypyridine-3-sulfonamide], for which it took 3.96 nM to reach half-maximal inhibition (IC50).

As for `COc1ncc(Cl)cc1S(=O)(=O)Nc1ccc(F)c(-c2ccc3nc(N[C@@H]4CC[C@@H](C(N)=O)C4)ncc3c2)c1F` [Compound 14, (1R,3R)-3-((6-(3-((5-chloro-2-methoxypyridine)-3-sulfonamido)-2,6-difluorophenyl)quinaz-zolin-2-yl)amino)cyclopent-ane-1-carboxamide 2,2,2-trifluoroacetate], the IC50 was 3.39 nM.

The compound `COCCNC(=O)[C@H]1C[C@H](Nc2ncc3cc(-c4c(F)ccc(NS(=O)(=O)c5cc(Cl)cnc5OC)c4F)ccc3n2)CN1` [Compound 15, (2R,4S)-4-((6-(3-((5-chloro-2-methoxypyridine)-3-sulfonamido)-2,6-difluorophenyl)quina-zolin-2-yl)amino)-N-(2-methoxyethyl)pyr-rolidine-2-carboxamide] gave an IC50 of 4.18 nM.

As for `COc1ncc(Cl)cc1S(=O)(=O)Nc1ccc(Cl)c(-c2ccc3nc(N[C@@H]4CC[C@@H](C(N)=O)C4)ncc3c2)c1Cl` [Compound 16, (1R,3R)-3-((6-(2,6-dichloro-3-((5-chloro-2-methoxypyridine)-3-sulfonamido)phenyl)quinazolin-2-yl)amino)cyclopent-ane-1-carboxamide], it took 11.7 nM to reach half-maximal inhibition (IC50). Compared with the last compound, the IC50 is about 2.8-fold higher.

`COCCNC(=O)[C@H]1C[C@H](Nc2ncc3cc(-c4c(Cl)ccc(NS(=O)(=O)c5cc(Cl)cnc5OC)c4Cl)ccc3n2)CN1` [Compound 17, (2R,4S)-4-((6-(2,6-dichloro-3-((5-chloro-2-methoxypyridine)-3-sulfonamido)phenyl)quinazolin-2-yl)amino)-N-(2-methoxyethyl)pyr-rolidine-2-carboxamide] came in with an IC50 of 9.17 nM. This IC50 and that of the compound before are within 1.5-fold of each other.

For the compound `COCCNC(=O)N1CC[C@@H](Nc2ncc3cc(-c4c(Cl)ccc(NS(=O)(=O)c5cc(Cl)cnc5OC)c4Cl)ccc3n2)C1` [Compound 18], the IC50 is 41.6 nM.

For `COCCNC(=O)[C@H]1CC[C@H](Nc2ncc3cc(-c4c(F)ccc(NS(=O)(=O)c5cc(Cl)cnc5OC)c4F)ccc3n2)CC1` [Compound 20, (1R,4R)-4-((6-(3-((5-chloro-2-methoxypyridine)-3-sulfonamido)-2,6-difluorophenyl)quina-zolin-2-yl)amino)-N-(2-methoxyethyl)cyclo-hexane-1-carboxamide], half-maximal inhibition (IC50) required 10.2 nM.

In turn, `COCCNC(=O)[C@H]1CC[C@H](Nc2ncc3cc(-c4c(Cl)ccc(NS(=O)(=O)c5cc(Cl)cnc5OC)c4Cl)ccc3n2)CC1` [Compound 21, (1R,4R)-4-((6-(2,6-dichloro-3-((5-chloro-2-methoxypyridine)-3-sulfonamido)phenyl)quinazolin-2-yl)amino)-N-(2-methoxyethyl)cyclo-hexane-1-carboxamide] displayed an IC50 of 31.9 nM.

`COc1ncc(Cl)cc1S(=O)(=O)Nc1ccc(F)c(-c2ccc3nc(NC4CCS(=O)(=O)C4)ncc3c2)c1F` (centres unmarked) [Compound 23, 5-chloro-N-(3-(2-((1,1-dioxidotetrahydro-thiophen-3-yl)amino)quinazo-lin-6-yl)-2,4-difluorophenyl)-2-methoxypyridine-3-sulfonamide]: the IC50 was found to be 6.66 nM.

`COc1ncc(Cl)cc1S(=O)(=O)Nc1ccc(Cl)c(-c2ccc3nc(NC4CCS(=O)(=O)C4)ncc3c2)c1Cl` (centres unmarked) [Compound 27, 5-chloro-N-(2,4-dichloro-3-(2-((1,1-dioxidotetrahydro-thiophen-3-yl)amino)quinazo-lin-6-yl)phenyl)-2-methoxypyridine-3-sulfonamide] came in with an IC50 of 25.3 nM.

For the compound `CCc1cc(-c2c(Cl)cnc(NS(=O)(=O)c3cc(Cl)cc(CO)c3Cl)c2Cl)cc2cnc(N)nc12` [Compound 35, N-(4-(2-amino-8-ethylquinazolin-6-yl)-3,5-dichloropyridin-2-yl)-2,5-dichloro-3-(hydroxymethyl)ben-zenesulfonamide], the midpoint of inhibition, the IC50, lay at 8.82 nM.

In the case of `CCc1cc(-c2c(F)cnc(NS(=O)(=O)c3cc(Cl)cnc3OC)c2F)cc2cnc(N)nc12` [Compound 38, N-(4-(2-amino-8-ethylquinazolin-6-yl)-3,5-difluoropyridin-2-yl)-5-chloro-2-methoxypyridine-3-sulfonamide], it took 7.32 nM to reach half-maximal inhibition (IC50).

`CCc1cc(-c2c(Cl)cnc(NS(=O)(=O)c3cc(Cl)cnc3OC)c2Cl)cc2cnc(N)nc12` [Compound 40, N-(4-(2-amino-8-ethylquinazolin-6-yl)-3,5-dichloropyridin-2-yl)-5-chloro-2-methoxypyridine-3-sulfonamide]: the midpoint of inhibition, the IC50, lay at 8.33 nM. This IC50 and that of the compound before are within 1.5-fold of each other.

The compound `CCc1cc(-c2c(F)ccc(NS(=O)(=O)c3cc(Cl)cnc3OC)c2F)cc2cnc(N[C@H]3CC[C@H](NC)CC3)nc12` [Compound 45, 5-chloro-N-(3-(8-ethyl-2-(((1R,4R)-4-(methylamino)cyclo-hexyl)amino)quina-zolin-6-yl)-2,4-difluorophenyl)-2-methoxypyridine-3-sulfonamide] displayed an IC50 of 88.3 nM.

For `CN[C@H]1CC[C@H](Nc2ncc3cc(-c4c(F)ccc(NS(=O)(=O)c5cc(Cl)cnc5OC)c4F)ccc3n2)CC1` [Compound 48, 5-chloro-N-(2,4-difluoro-3-(2-(((1R,4R)-4-(methylamino)cyclo-hexyl)amino)quina-zolin-6-yl)phenyl)-2-methoxypyridine-3-sulfonamide], the IC50 is 3.23 nM.

For `CCc1cc(-c2c(F)ccc(NS(=O)(=O)c3cc(Cl)cnc3OC)c2F)cc2cnc(N[C@H]3CC[C@H](N)CC3)nc12` [Compound 52, N-(3-(2-(((1R,4R)-4-aminocyclohexyl)amino)-8-ethylquinazolin-6-yl)-2,4-difluorophenyl)-5-chloro-2-methoxypyridine-3-sulfonamide], the IC50 was found to be 5.13 nM.

Compound `CN(C)[C@H]1CC[C@H](Nc2ncc3cc(-c4c(F)ccc(NS(=O)(=O)c5cc(Cl)cc(CO)c5Cl)c4F)ccc3n2)CC1` [Compound 53, 2,5-dichloro-N-(3-(2-(((1R,4R)-4-(dimethylamino)cy-clohexyl)amino)quinazolin-6-yl)-2,4-difluorophenyl)-3-(hydroxymethyl)ben-zenesulfonamide] returned an IC50 of 1.11 nM.
